Results taken from patent US20130281504A1, “Reduction of Microglia-Mediated Neurotoxicity by KCa3.1 Inhibition” (THE REGENTS OF THE UNIVERSITY OF CALIFORNIA, priority 2010, published 2013).
Several values for one entry are separate records, joined by “and”; a condition that tells them apart may be missing. Equal values may be shown once.

Experiments:
[1] = system: middle cerebral artery occlusion (MCAO); assay: MCAO with 7 days of reperfusion, treatment started 12 h after reperfusion; type: in vivo, rat; set-up: key to neurological deficit, 4-score system: 0 = no deficit to 4 = most severe deficit; key to neurological deficit, 14-score system: 14-point limb placing score; lower = more severe deficit; conditions: for mean infarct size (H&E defined lesion area): controls 22.6±3.6%
Source text: Adult male Wistar rats weighing 160-180 g were purchased from Charles River (Wilmington, Mass.), acclimatized to the new vivarium for 5-7 days and used for the surgery when they weighed 200-230 g. Rats were anesthetized using box induction with 5% isoflurane and then maintained on 0.5%-1.5% isoflurane in medical grade oxygen via a facemask. In order to assure consistent reduction of cerebral blood flow (CBF) throughout the procedure, we affixed a small hand-made adaptor for the Laser Doppler probe (Moor Instruments, Wilmington, Del.) to the surface of the skull. The center of the adapter was 5 mm lateral to the central fusion line and 2.5 mm posterior to bregma. Instant adhesive and dental cement were applied to the base and around the edges of the small plastic adapter to hold the Doppler probe. The adapter with the attached probe remained in place throughout the MCAO surgery to confirm continuous occlusion and later the establishment of reperfusion. Focal cerebral ischemia was then induced by occlusion of the left middle cerebral artery (MCA). The left common carotid artery was surgically exposed, the external carotid artery was ligated distally from the common carotid artery, and a silicone rubber coated nylon monofilament with a tip diameter of 0.43±0.02 mm (Doccol Corp., Redlands, Calif.) was inserted into the external carotid artery and advanced into the internal carotid artery to block the origin of the middle cerebral artery (when maximum CBF reduction observed). The filament was kept in place for 90 min and then withdrawn and removed from the blood vessel to restore blood supply. […] Neurological deficits were scored according to a 4-score test and a tactile and/or proprioceptive limb-placing test as follows: 1) 4-score test (higher score for more severe neurological deficits): 0=no apparent deficit; 1=contralateral forelimb is consistently flexed during suspension by holding the tail; 2=decreasing grip ability on the contralateral forelimb while tail pulled; 3=spontaneous movement in all directions but circling to contralateral side when pulled by the tail; 4=spontaneous contralateral circling or depressed level of consciousness. 2) 14-score limb placing test (lower score for more severe neurological deficits): Proprioception, forward extension, lateral abduction, and adduction were tested with vision or tactile stimuli. For visual limb placing, rats were held and slowly moved forward or lateral toward the top of a table. Normal rats placed both forepaws on the tabletop. Tactile forward and lateral limb placing were tested by lightly contacting the table edge with the dorsal or lateral surface of a rat's paw while avoiding whisker contact and covering the eyes to avoid vision. For proprioceptive hind limb placing, each rat was pushed along the edge of an elevated platform in order to test proprioceptive hind limb adduction. The paw was pulled down and away from the platform edge, and the ability to retrieve and place the paw on the table surface upon sudden release was assessed. For each test, limb placing scores were 0=no placing; 1=incomplete and/or delayed (>2 seconds) placing; or 2=immediate and complete placing. For each body side, the maximum summed visual limb placing score was 4 and the maximum summed tactile and proprioceptive limb placing score, including the platform test, was 10.
Rats were euthanized with an overdose of isoflurane. Blood samples for determination of electrolytes, pH, pCO2, glucose and hemoglobin (I-STAT; Abbott, Princeton, N.J.) were drawn from the vena cava and brains quickly removed and sectioned into eight 2-mm thick slices starting from the frontal pole. Slices were then fixed in 10% buffer formalin embedded in paraffin and sectioned at 5 Sections were stained with hematoxylin & eosin and scanned. […]

hippocampal slices = assay: AβO-treated organotypic hippocampal slice cultures; type: cell-based, mouse
Experimental: Hippocampal slice cultures (400 μm-thick) were prepared from 7-day-old C57BL/6J mice as previously described (25) and cultured for 10 days in vitro before use. Neuronal damage in the slices was monitored by PI uptake following Bernardino et al (27). PI itself is not toxic to neurons (27). […] After 24 hrs, the slices were observed under a Nikon Eclipse E600 microscope and the red (630 nm) fluorescence emitted by PI taken up by damaged cells was photographed by a digital camera (SPOT RTke, SPOT Diagnostics, Sterling Heights, Mich.) with fixed exposure time.
For immunofluorescent staining of neurons, cultures were fixed in 4% paraformaldehyde and stained with anti-PSD95 (1:200, Cell Signaling), anti-MAP2 (1:500, Chemicon) and anti-acetylated α-tubulin (1:250, Zymed). For immunofluorescent staining of microglia, cultures or hippocampal slices were fixed in 4% paraformaldehyde and stained with anti-IBA1 (1:500, Wako Chemicals USA), anti-SRA (E-20, 1:200, Santa Cruz Biotechnology), and anti-CD11b (1:200, AbD Serotec USA, Raleigh, N.C.). The fixed cells or hippocampal slices were incubated with antibodies for overnight at 4° C. followed by secondary Alexa488 conjugated anti-mouse or Alexa568 conjugated anti-rabbit antibody (1:700, Molecular probes). Immunostained images were observed under a Nikon Eclipse E600 microscope and photographed by a digital camera (SPOT RTke, SPOT Diagnostics, Sterling Heights, Mich.).
To obtain lysates, cells or tissues were washed with ice-cold PBS and incubated with a buffer containing 50 mmol/L Tris-HCl (pH 7.4), 150 mmol/L NaCl, 2% SDS, proteinase inhibitor cocktail (Sigma), and phosphatase inhibitor cocktail (Sigma). Lysates were briefly sonncated and cleared by centrifugation at 50,000 rpm for 10 min. Equivalent amounts of protein were analyzed by Tris/HCL gel electrophoresis. Proteins were transferred to polyvinylidene difluoride membranes and probed with antibodies. Visualization was performed using enhanced chemiluminescence (ECL, Amersham Pharmacia, Piscataway, N.J.).
Conditioned medium collected from microglia cultures (1×10^5/0.75 cm^2) and hippocampal slices treated with Aβ for 24 hrs were analyzed by the Nitric Oxide Quantization Kit according to the protocol of the manufacturer (Active Motif, Carlsbad, Calif.). Data were normalized to the amount of total protein.

[2] = system: middle cerebral artery occlusion (MCAO); assay: MCAO with 7 days of reperfusion, treatment started 2 h after reperfusion; type: in vivo, rat; conditions: 10 mg/kg twice daily 7 days from 2 h after reperfusion
Source text: Adult male Wistar rats weighing 160-180 g were purchased from Charles River (Wilmington, Mass.), acclimatized to the new vivarium for 5-7 days and used for the surgery when they weighed 200-230 g. Rats were anesthetized using box induction with 5% isoflurane and then maintained on 0.5%-1.5% isoflurane in medical grade oxygen via a facemask. In order to assure consistent reduction of cerebral blood flow (CBF) throughout the procedure, we affixed a small hand-made adaptor for the Laser Doppler probe (Moor Instruments, Wilmington, Del.) to the surface of the skull. The center of the adapter was 5 mm lateral to the central fusion line and 2.5 mm posterior to bregma. […] Neurological deficits were scored according to a 4-score test and a tactile and/or proprioceptive limb-placing test as follows: 1) 4-score test (higher score for more severe neurological deficits): 0=no apparent deficit; 1=contralateral forelimb is consistently flexed during suspension by holding the tail; 2=decreasing grip ability on the contralateral forelimb while tail pulled; 3=spontaneous movement in all directions but circling to contralateral side when pulled by the tail; 4=spontaneous contralateral circling or depressed level of consciousness. […] The paw was pulled down and away from the platform edge, and the ability to retrieve and place the paw on the table surface upon sudden release was assessed. […]

SMILES: Clc1ccccc1C(c1ccccc1)(c1ccccc1)n1cccn1 [TRAM-34, 1-[(2-chlorophenyl)diphenylmethyl]-1H-pyrazole]
- neurological deficit, 14-score system ([1]; 10 mg/kg group, 12 h after reperfusion (start of treatment), vehicle 4.3±0.94): 4.8±0.63
- neurological deficit, 4-score system ([1]; 10 mg/kg group, 12 hours after reperfusion (start of treatment), vehicle 3.1±0.20): 3.3±0.50
- neurological deficit, 4-score system ([1]; 10 mg/kg, 196 h (=7 days) after reperfusion, vehicle 1.5±0.30, P=0.24): 0.8±0.10
- neurological deficit, 14-score system ([1]; 10 mg/kg, 196 h (=7 days) after reperfusion, vehicle 7.5±0.46, P=0.004): 9.8±0.01
- microglia activation (ED1+ area) ([1]; 10 mg/kg, delayed administration): did not result in a significant reduction
- brain shrinkage ([1]; 10 mg/kg, P=0.11, not significant): tended to reduce
- number of TUNEL-positive cells in cortex and striatum ([1]; 10 mg/kg, P=0.143 cortex, 0.230 striatum): did not reach statistical significance
- mean infarct size (H&E defined lesion area) ([1]; 10 mg/kg, mean±SEM, P=0.039): 11.3±2.8%
- neurological deficit, 14-score system ([1]; 40 mg/kg group, 12 h after reperfusion (start of treatment), vehicle 4.3±0.94): 3.4±0.46
- neurological deficit, 4-score system ([1]; 40 mg/kg group, 12 hours after reperfusion (start of treatment), vehicle 3.1±0.20): 3.0±0.80
- neurological deficit, 4-score system ([1]; 40 mg/kg, day-7 / 196 h after reperfusion, vehicle 1.5±0.30, P=0.02): 0.5 and 0.4±0.01
- neurological deficit, 14-score system ([1]; 40 mg/kg, day-7 / 196 h after reperfusion, vehicle 7.5±0.46, P<0.001): 11±0.38 and 12
- number of apoptotic (TUNEL positive) cells in cortex and striatum ([1]; 40 mg/kg, P=0.0067 cortex, 0.033 striatum): significantly reduced
- average number of surviving NeuN+ neurons in the infarcted hemisphere ([1]; 40 mg/kg, P=0.052): increase
- mean infarct size (H&E defined lesion area) ([1]; 40 mg/kg, P=0.004): 8.1±1.9%
- ED1+ area in the infarcted hemisphere ([1]; 40 mg/kg, vehicle 3770.6±594.2, P=0.03, mean±SEM): 1632.6±363.75 pixels/mm^2
- reduction of infarct area (H&E, day-7) ([1]; 10 or 40 mg/kg i.p. twice daily 7 days from 12 h after reperfusion, both doses): ~50%
- AβO-induced microglia activation in hippocampal slices (hippocampal slices; 20 nM AβO 24 hrs, co-treatment, FIG. 7A, 7C): substantially ameliorated
- AβO-induced NO production from hippocampal slices (hippocampal slices; 20 μM doxycycline, 1 μM TRAM-34, FIG. 7B): prevented
- AβO-enhanced PI uptake (neuronal damage) in hippocampal slices (hippocampal slices; 20 μM doxycycline, 1 μM TRAM-34, FIG. 7C): ameliorated
- AβO-induced reduction of dendritic and post-synaptic proteins in hippocampal slices (hippocampal slices; co-treatment, FIG. 7D): substantially ameliorated
- NO production from hippocampal slices, compound alone (hippocampal slices; without AβO): did not affect NO production
- amount of activated (ED1+) microglia/macrophages in infarcted hemisphere [2]: reduced
- mean infarct area, % of ipsolateral triphenyltetrazolium chloride positive hemisphere area ([2]; control 18.8±3.5%, mean±SEM, P=0.007): 6.6±1.9%
